Test results taken from patent publication US20250066359A1, “SOMATOSTATIN RECEPTOR SUBTYPE 5 ANTAGONISTS, AND PHARMACEUTICAL COMPOSITION AND USE THEREOF” (SHANGHAI INSTITUTE OF MATERIA MEDICA, CHINESE ACADEMY OF …, priority 2021, published 2025).
One block for each compound: values may come before it.

Tests used:
[1] = test system: C57BL/6J mice; experiment: Gallbladder emptying promotion experiment; type: in vivo, mouse; conditions: 30 mg/kg by gavage, egg yolk 1 h later, gallbladder removed after 15 min, versus control group, FIG. 2
Method: Experimental method: Before the experiment, 8-10 weeks old C57BL/6J mice were fasted for 17-18 hours and allowed to drink water freely. The mice were then divided into groups according to weight (n=4), and were gavaged with an aqueous solution of the compound prepared in Example 34 (30 mg/kg) or an equal volume of distilled water (control group), with a dosing volume of 10 mL/kg. At one hour after administration, 200 microliters of egg yolk were orally administered to the mice. After 15 minutes, the mice were killed by dislocation and dissected, and the gallbladder was removed and the bile was squeezed out and weighed with an analytical balance.

[2] = molecular target: T1, mSSTR5 (Mus musculus, UniProt O08858); experiment: SSTR5 antagonistic activity in vitro by calcium flow detection (mSSTR5-CHO-Gα16 cells); type: cell-based; conditions: 100 nM Somatostatin-14 agonist, Fluo-4 fluorescence 525 nm
T1 construct: expressed in transfected cells; host or cells: CHO cells co-expressing Gα16 (mSSTR5-CHO-Gα16)
T1 sequence (O08858 1-362): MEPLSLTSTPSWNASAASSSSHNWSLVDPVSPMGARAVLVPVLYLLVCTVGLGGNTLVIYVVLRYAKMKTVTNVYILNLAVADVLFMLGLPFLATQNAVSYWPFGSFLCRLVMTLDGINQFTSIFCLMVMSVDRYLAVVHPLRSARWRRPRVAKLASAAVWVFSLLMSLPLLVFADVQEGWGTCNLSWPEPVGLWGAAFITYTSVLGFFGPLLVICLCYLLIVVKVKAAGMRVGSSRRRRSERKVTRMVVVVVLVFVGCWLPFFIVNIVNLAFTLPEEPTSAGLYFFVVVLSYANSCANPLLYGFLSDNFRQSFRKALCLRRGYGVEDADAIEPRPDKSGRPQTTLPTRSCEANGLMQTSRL
Text: (§1) Testing SSTR5 antagonistic activity in vitro by Calcium flow detection method Experimental principle: After the receptor binds to the ligand and is activated, it can cause the activation of Gα16 protein, which further activates phospholipase C(PLC) to produce IP3 and DAG. IP3 can bind to the IP3 receptors on the endoplasmic reticulum and mitochondria in the cell, thereby causing the release of intracellular calcium. Therefore, measuring the changes in intracellular calcium can be used in the method to detect the activation state of hSSTR5. Fluo-4/AM is a calcium fluorescent probe indicator used to measure calcium ions. As a non-polar lipid-soluble compound, after it enters the cell, the AM group therein dissociates, and Fluo-4 is released under the action of cellular lipase; because Fluo-4 is a polar molecule and is not easy to pass through the lipid bilayer membrane, it can keep Fluo-4 in the cell fora longtime. Finally, the level of Ga protein activation can be reflected by measuring the intensity of the excited fluorescence. Somatostatin, an agonist of SSTR5, can activate SSTR5 receptors and greatly increase the calcium flow response. The SSTR5 antagonist to be tested can inhibit the agonist activity of the SSTR5 receptor and reduce the calcium increased flow response of the receptor stimulated by the agonist.
(§2) • (1) The hSSTR5-CHO-Gα16 and mSSTR5-CHO-Gα16 cell lines stably expressing hSSTR5 or mSSTR5 receptors were seeded at a density of 30,000/well in a 96-well plate and cultured in a 37° C. incubator overnight. • (2) The cells was aspirated off the culture medium, added with freshly prepared dye at 40 μL/well, and incubated in a 37° C. incubator for 45 minutes. • (3) After the dye was aspirated and discarded, the cells were washed with freshly prepared calcium buffer and the culture medium was replaced with 50 μL of calcium buffer. • (4) The SSTR5 agonist Somatostatin-14 was diluted and mixed evenly with calcium buffer. • (5) Detection was performed using a Flextation instrument. Starting from the 15th second, 25 μL of the pre-prepared agonist was automatically added by the instrument, and the fluorescence value at 525 nm was read.

[3] = molecular target: T2, hSSTR5 (Homo sapiens, UniProt P35346); experiment: SSTR5 antagonistic activity in vitro by calcium flow detection (hSSTR5-CHO-Gα16 cells); type: cell-based
T2 construct: expressed in transfected cells; host or cells: CHO cells co-expressing Gα16 (hSSTR5-CHO-Gα16)
Text: as §1, §2

[4] = test system: SSTR5; experiment: Calcium flow response to the SSTR5 agonist (choice of agonist concentration); type: cell-based; conditions: CHO-Gα16 cells expressing SSTR5, cell line (h or m) not stated
Text: as §1, with “agonist. […]” for “agonist.”

T2 sequence (P35346 whole entry): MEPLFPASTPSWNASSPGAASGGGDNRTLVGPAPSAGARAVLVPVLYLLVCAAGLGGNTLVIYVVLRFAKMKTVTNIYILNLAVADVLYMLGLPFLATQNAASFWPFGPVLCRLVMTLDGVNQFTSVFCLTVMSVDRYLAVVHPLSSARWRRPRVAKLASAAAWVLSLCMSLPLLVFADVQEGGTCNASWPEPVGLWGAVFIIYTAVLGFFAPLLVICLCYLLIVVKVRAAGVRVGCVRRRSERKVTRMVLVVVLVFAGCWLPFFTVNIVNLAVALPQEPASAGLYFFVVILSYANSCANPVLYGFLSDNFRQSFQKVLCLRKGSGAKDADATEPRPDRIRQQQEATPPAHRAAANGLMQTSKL

Compound: CCOc1cc(CN2CCC3(CC2)CN(c2ccc(C(=O)O)c(F)c2)C3)c(C2CC2)cc1C [Example 34, 4-(7-(2-cyclopropyl-5-ethoxy-4-methylbenzyl)-2,7-diazaspiro[3.5]nonan-2-yl)-2-fluorobenzoic acid]
- emptying of the mouse gallbladder (bile weight) [1]: significantly promote the emptying of the mouse gallbladder

- IC50 [2]: 0.1 to 50 nM
- IC50 ([3]; hSSTR5-CHO-Gα16 cells, 100 nM Somatostatin-14 agonist, Fluo-4 fluorescence 525 nm): 0.1 to 50 nM
- SSTR5 antagonistic activity (in words) ([3]; summary of Table 1): potent SSTR5 antagonistic activity
Compound: CCOc1cc(CN2CCN(C3CCN(S(=O)(=O)c4ccc(OC(F)(F)F)cc4)CC3)CC2)cc(OCC)c1-c1ccc(F)cc1 [Example 12, 1-((2,6-diethoxy-4′-fluoro-[1,1′-biphenyl]-4-yl)methyl)-4-(1-((4-(trifluoromethoxy)phenyl)sulfonyl)piperidin-4-yl)piperazine]

Compound: Somatostatin-14
- EC50 [4]: 9.7 nM
